Results taken from ChEMBL document CHEMBL1201862, “PubChem BioAssay data set” (2004).
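Assay format: 96-well plates, 48-hour exposure. GI50 = concentration required for 50% inhibition of growth.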 Calls of active or inactive are those of the source. Rule as the data show it: active = GI50 up to about 1.1 µM and inactive = higher.

Columns and labels:
Experiment in all cases: growth of human tumour cells (NCI), 48 h
[1] = tested on: RXF 393
[2] = tested on: Malme-3M
[3] = tested on: U-251
[4] = tested on: SNB-75
[5] = tested on: CAKI-1
[6] = tested on: HCT-15
[7] = tested on: MDA-MB-435
[8] = tested on: EKVX
[9] = tested on: SK-MEL-5
[10] = tested on: A498
[11] = tested on: SNB-19
[12] = tested on: MOLT-4
[13] = tested on: MDA-N
[14] = tested on: NCI/ADR-RES
[15] = tested on: T47D
[16] = tested on: TK-10
[17] = tested on: SN12C
[18] = tested on: HOP-92
[19] = tested on: MCF7
[20] = tested on: MDA-MB-231
[21] = tested on: PC-3
[22] = tested on: SF-268
[23] = tested on: UACC-257
[24] = tested on: UACC-62
[25] = tested on: Hs-578T
[26] = tested on: OVCAR-4
[27] = tested on: SF-539
[28] = tested on: NCI-H460
[29] = tested on: ACHN
[30] = tested on: KM12
[31] = tested on: HT-29
[32] = tested on: A549
[33] = tested on: OVCAR-3
[34] = tested on: HOP-62
[35] = tested on: NCI-H226
[36] = tested on: SF-295
[37] = tested on: UO-31
[38] = tested on: NCI-H23
[39] = tested on: HL-60
[40] = tested on: HCT-116
[41] = tested on: DU-145
[42] = tested on: NCI-H522
[43] = tested on: SK-MEL-28
[44] = tested on: OVCAR-8
[45] = tested on: M14
[46] = tested on: 786-0
[47] = tested on: RPMI-8226
[48] = tested on: COLO 205
[49] = tested on: IGROV-1
[50] = tested on: SW-620
[51] = tested on: SK-MEL-2
[52] = tested on: OVCAR-5
[53] = tested on: SK-OV-3
[54] = tested on: LOX IMVI
[55] = tested on: K562
[56] = tested on: SR
[57] = tested on: HCC 2998
[58] = tested on: CCRF-CEM
[59] = tested on: BT-549

## COC(=O)C1CCC(=O)N1CN(C(C)=O)c1cc(OC)ccc1OC (centres undefined)
[1]
  GI50: > 100 µM (inactive)
[2]
  GI50: > 100 µM (inactive)
[3]
  GI50: > 100 µM (inactive)
[4]
  GI50: > 100 µM (inactive)
[5]
  GI50: > 100 µM (inactive)
[6]
  GI50: > 100 µM
[7]
  GI50: > 100 µM (inactive)
[8]
  GI50: > 100 µM (inactive)
[9]
  GI50: > 100 µM (inactive)
[10]
  GI50: > 100 µM (inactive)
[11]
  GI50: > 100 µM (inactive)
[12]
  GI50: > 100 µM (inactive)
[13]
  GI50: > 100 µM (inactive)
[14]
  GI50: > 100 µM (inactive)
[15]
  GI50: > 100 µM (inactive)
[16]
  GI50: > 100 µM (inactive)
[17]
  GI50: > 100 µM (inactive)
[18]
  GI50: > 100 µM (inactive)
[19]
  GI50: > 100 µM (inactive)
[20]
  GI50: > 100 µM (inactive)
[21]
  GI50: > 100 µM (inactive)
[22]
  GI50: > 100 µM (inactive)
[23]
  GI50: > 100 µM (inactive)
[24]
  GI50: > 100 µM (inactive)
[25]
  GI50: > 100 µM (inactive)
[26]
  GI50: > 100 µM (inactive)
[27]
  GI50: > 100 µM (inactive)
[28]
  GI50: > 100 µM (inactive)
[29]
  GI50: > 100 µM (inactive)
[30]
  GI50: > 100 µM (inactive)
[31]
  GI50: > 100 µM (inactive)
[32]
  GI50: > 100 µM (inactive)
[33]
  GI50: > 100 µM (inactive)
[34]
  GI50: > 100 µM (inactive)
[35]
  GI50: > 100 µM (inactive)
[36]
  GI50: > 100 µM (inactive)
[37]
  GI50: > 100 µM (inactive)
[38]
  GI50: > 100 µM (inactive)
[39]
  GI50: > 100 µM (inactive)
[40]
  GI50: > 100 µM (inactive)
[41]
  GI50: > 100 µM (inactive)
[42]
  GI50: > 100 µM (inactive)
[43]
  GI50: > 100 µM (inactive)
[44]
  GI50: > 100 µM (inactive)
[45]
  GI50: > 100 µM (inactive)
[46]
  GI50: > 100 µM (inactive)
[47]
  GI50: > 100 µM (inactive)
[48]
  GI50: > 100 µM (inactive)
[49]
  GI50: > 100 µM (inactive)
[50]
  GI50: > 100 µM (inactive)
[51]
  GI50: > 100 µM (inactive)
[52]
  GI50: > 100 µM (inactive)
[53]
  GI50: > 100 µM (inactive)
[54]
  GI50: > 100 µM (inactive)
[55]
  GI50: > 100 µM (inactive)
[56]
  GI50: 16.9 µM (inactive)

## CN(COC(=O)c1ccccc1)c1nc(N(C)COC(=O)c2ccccc2)nc(N(C)COC(=O)c2ccccc2)n1
[1]
  GI50: 7.83 µM (inactive)
[2]
  GI50: > 100 µM (inactive)
[3]
  GI50: 20.2 µM (inactive)
[4]
  GI50: > 94.6 µM (inactive)
[5]
  GI50: 57.7 µM (inactive)
[6]
  GI50: > 100 µM
[7]
  GI50: > 100 µM (inactive)
[8]
  GI50: > 83.6 µM (inactive)
[9]
  GI50: > 100 µM (inactive)
[11]
  GI50: 16.5 µM (inactive)
[12]
  GI50: > 100 µM (inactive)
[13]
  GI50: > 100 µM (inactive)
[14]
  GI50: 50.1 µM (inactive)
[15]
  GI50: 28.8 µM (inactive)
[16]
  GI50: 20.3 µM (inactive)
[17]
  GI50: > 100 µM (inactive)
[57]
  GI50: > 100 µM (inactive)
[18]
  GI50: 13.1 µM (inactive)
[19]
  GI50: > 71.9 µM (inactive)
[20]
  GI50: 15.7 µM (inactive)
[21]
  GI50: > 100 µM (inactive)
[22]
  GI50: 21.8 µM (inactive)
[23]
  GI50: > 91.4 µM (inactive)
[24]
  GI50: > 60.7 µM (inactive)
[25]
  GI50: 22.4 µM (inactive)
[26]
  GI50: 47.5 µM (inactive)
[27]
  GI50: 12.2 µM (inactive)
[28]
  GI50: > 69.5 µM (inactive)
[29]
  GI50: 21.2 µM (inactive)
[30]
  GI50: > 100 µM (inactive)
[31]
  GI50: > 100 µM (inactive)
[32]
  GI50: > 100 µM (inactive)
[33]
  GI50: > 84.1 µM (inactive)
[34]
  GI50: 14.7 µM (inactive)
[35]
  GI50: 30.4 µM (inactive)
[36]
  GI50: 23.9 µM (inactive)
[37]
  GI50: > 83.9 µM (inactive)
[38]
  GI50: 41.5 µM (inactive)
[39]
  GI50: > 100 µM (inactive)
[40]
  GI50: 44.5 µM (inactive)
[41]
  GI50: > 100 µM (inactive)
[42]
  GI50: 52.4 µM (inactive)
[43]
  GI50: > 100 µM (inactive)
[44]
  GI50: 39.4 µM (inactive)
[58]
  GI50: > 100 µM (inactive)
[45]
  GI50: > 86.3 µM (inactive)
[46]
  GI50: 11.4 µM (inactive)
[47]
  GI50: > 100 µM (inactive)
[48]
  GI50: > 100 µM (inactive)
[49]
  GI50: 28.8 µM (inactive)
[50]
  GI50: > 100 µM (inactive)
[52]
  GI50: > 100 µM (inactive)
[53]
  GI50: > 65.2 µM (inactive)
[54]
  GI50: > 100 µM (inactive)
[55]
  GI50: > 27.4 µM (inactive)
[56]
  GI50: > 100 µM (inactive)

## C=CCN1C(=O)/C(=C/c2ccccc2)N=C1SC/C=C/C
[1]
  GI50: 15.2 µM (inactive)
[3]
  GI50: 48.1 µM (inactive)
[4]
  GI50: 46.2 µM (inactive)
[5]
  GI50: > 100 µM (inactive)
[6]
  GI50: 47.5 µM
[7]
  GI50: 40.8 µM (inactive)
[9]
  GI50: 18.4 µM (inactive)
[10]
  GI50: 43.7 µM (inactive)
[11]
  GI50: > 100 µM (inactive)
[14]
  GI50: 49.4 µM (inactive)
[15]
  GI50: 20.2 µM (inactive)
[16]
  GI50: 79.1 µM (inactive)
[17]
  GI50: 40.2 µM (inactive)
[57]
  GI50: 28.3 µM (inactive)
[18]
  GI50: 12.2 µM (inactive)
[19]
  GI50: 33.1 µM (inactive)
[20]
  GI50: 86.7 µM (inactive)
[21]
  GI50: 22.3 µM (inactive)
[22]
  GI50: 57.9 µM (inactive)
[23]
  GI50: 28.3 µM (inactive)
[24]
  GI50: 51.5 µM (inactive)
[25]
  GI50: 69.5 µM (inactive)
[26]
  GI50: 31.2 µM (inactive)
[27]
  GI50: > 100 µM (inactive)
[28]
  GI50: 43.8 µM (inactive)
[29]
  GI50: 80.4 µM (inactive)
[30]
  GI50: 37.4 µM (inactive)
[59]
  GI50: 51.3 µM (inactive)
[32]
  GI50: 39.3 µM (inactive)
[33]
  GI50: > 100 µM (inactive)
[34]
  GI50: > 100 µM (inactive)
[35]
  GI50: 31.8 µM (inactive)
[36]
  GI50: 61.2 µM (inactive)
[37]
  GI50: 39.9 µM (inactive)
[38]
  GI50: 58.7 µM (inactive)
[40]
  GI50: 34.5 µM (inactive)
[41]
  GI50: 57.5 µM (inactive)
[42]
  GI50: 33 µM (inactive)
[43]
  GI50: 69.3 µM (inactive)
[44]
  GI50: 45.1 µM (inactive)
[58]
  GI50: 27.9 µM (inactive)
[45]
  GI50: 71.1 µM (inactive)
[46]
  GI50: 42.7 µM (inactive)
[47]
  GI50: 15.7 µM (inactive)
[48]
  GI50: 52.2 µM (inactive)
[49]
  GI50: > 100 µM (inactive)
[50]
  GI50: 46.1 µM (inactive)
[51]
  GI50: 26.2 µM (inactive)
[53]
  GI50: > 100 µM (inactive)
[54]
  GI50: 49.1 µM (inactive)
[55]
  GI50: 0.0146 µM (active)
[56]
  GI50: 6.67 µM (inactive)

## COC(=O)CCC(=O)c1ccc2c(c1)CC1(C2)Cc2ccc(C(=O)CCC(=O)OC)cc2C1
[1]
  GI50: > 100 µM (inactive)
[2]
  GI50: > 100 µM (inactive)
[3]
  GI50: 36.4 µM (inactive)
[4]
  GI50: < 0.01 µM (active)
[6]
  GI50: > 100 µM
[7]
  GI50: > 100 µM (inactive)
[8]
  GI50: > 100 µM (inactive)
[9]
  GI50: 17.3 µM (inactive)
[10]
  GI50: 45 µM (inactive)
[12]
  GI50: 52 µM (inactive)
[13]
  GI50: 73.1 µM (inactive)
[14]
  GI50: 37.4 µM (inactive)
[15]
  GI50: 56 µM (inactive)
[16]
  GI50: 82.6 µM (inactive)
[17]
  GI50: > 100 µM (inactive)
[57]
  GI50: > 100 µM (inactive)
[18]
  GI50: > 100 µM (inactive)
[19]
  GI50: 44.1 µM (inactive)
[20]
  GI50: 60.1 µM (inactive)
[21]
  GI50: 39.8 µM (inactive)
[23]
  GI50: 85.1 µM (inactive)
[24]
  GI50: > 100 µM (inactive)
[25]
  GI50: > 100 µM (inactive)
[26]
  GI50: 32.7 µM (inactive)
[27]
  GI50: 67.5 µM (inactive)
[29]
  GI50: 25.8 µM (inactive)
[30]
  GI50: > 100 µM (inactive)
[31]
  GI50: > 100 µM (inactive)
[32]
  GI50: > 100 µM (inactive)
[33]
  GI50: 61.2 µM (inactive)
[34]
  GI50: 43.5 µM (inactive)
[36]
  GI50: 53.8 µM (inactive)
[37]
  GI50: 30.5 µM (inactive)
[38]
  GI50: 59.7 µM (inactive)
[39]
  GI50: 56.2 µM (inactive)
[40]
  GI50: > 100 µM (inactive)
[42]
  GI50: 55.1 µM (inactive)
[44]
  GI50: 73.6 µM (inactive)
[58]
  GI50: > 100 µM (inactive)
[45]
  GI50: 66.5 µM (inactive)
[46]
  GI50: 30.8 µM (inactive)
[47]
  GI50: 35.2 µM (inactive)
[48]
  GI50: 94.4 µM (inactive)
[49]
  GI50: > 100 µM (inactive)
[51]
  GI50: 0.61 µM (active)
[52]
  GI50: > 100 µM (inactive)
[53]
  GI50: 67 µM (inactive)
[54]
  GI50: > 100 µM (inactive)
[55]
  GI50: 29.9 µM (inactive)
[56]
  GI50: 17 µM (inactive)
